Earlier results, collected in patent US20050222211A1, “S(-)rabeprazole compositions and methods” (Sepracor Inc., priority 1998, published 2005).

Tests used:
[1] = tested on: gastric acid secretion; details: humans
[2] = tested on: CYP 3A; details: compared with omeprazole
[3] = biological target: CYP 2C19 (Homo sapiens, UniProt P33261); details: compared with omeprazole
[4] = humans; depending on dose
[5] = tested on: CYP 1A1 mRNA; details: compared with pantoprazole

CYP 2C19, sequence (P33261 whole entry, species assumed): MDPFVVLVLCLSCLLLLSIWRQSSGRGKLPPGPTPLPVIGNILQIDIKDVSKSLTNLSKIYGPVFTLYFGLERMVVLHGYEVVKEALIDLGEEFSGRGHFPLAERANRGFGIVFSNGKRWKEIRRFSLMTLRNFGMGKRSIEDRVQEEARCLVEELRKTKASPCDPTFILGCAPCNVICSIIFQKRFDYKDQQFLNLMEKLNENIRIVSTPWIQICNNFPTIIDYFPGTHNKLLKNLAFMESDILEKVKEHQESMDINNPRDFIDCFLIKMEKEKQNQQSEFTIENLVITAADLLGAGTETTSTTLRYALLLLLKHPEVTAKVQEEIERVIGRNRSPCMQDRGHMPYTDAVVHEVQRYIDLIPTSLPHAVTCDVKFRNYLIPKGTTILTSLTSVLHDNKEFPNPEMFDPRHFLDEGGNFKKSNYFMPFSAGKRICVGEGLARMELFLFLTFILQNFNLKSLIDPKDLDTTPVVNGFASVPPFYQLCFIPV

SMILES: COCCCOc1ccnc(C[S+]([O-])c2nc3ccccc3[nH]2)c1C (racemic) [racemic rabeprazole]
- duration of the acid inhibitory effect [1]: about 24 hours
- effects on hepatic drug metabolizing enzyme systems such as CYP 3A [2]: comparable to omeprazole
- inhibition of CYP 2C19 [3]: less inhibitory of CYP 2C19 than is omeprazole
- serum half-life [4]: 0.833 to 1.5 h
- induction of CYP 1A1 mRNA [5]: more potent inducer of CYP 1A1 mRNA than is pantoprazole
